PubChem BioAssay (NCI)
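Grown in 96-well plates, cells were treated for 48 hours with each compound at five concentrations. Insufficient inhibition: endpoint recorded as highest concentration tested. GI50: concentration for 50% inhibition of growth. TGI denotes the concentration required for complete inhibition of growth.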

Key:
Experiment in all cases: growth of human tumour cells (NCI), 48 h
UACC-62 melanoma = tested on: UACC-62 melanoma
CCRF-CEM leukemia = tested on: CCRF-CEM leukemia
OVCAR-4 ovarian = tested on: OVCAR-4 ovarian
SF-268 CNS = tested on: SF-268 CNS
SNB-19 CNS = tested on: SNB-19 CNS
HOP-62 NSCLC = tested on: HOP-62 NSCLC
T-47D breast = tested on: T-47D breast
BT-549 breast = tested on: BT-549 breast
MDA-MB-231 breast = tested on: MDA-MB-231 breast
HOP-92 NSCLC = tested on: HOP-92 NSCLC

Compound | TGI (UACC-62 melanoma) [µM] | TGI (CCRF-CEM leukemia) [µM] | TGI (OVCAR-4 ovarian) [µM] | TGI (SF-268 CNS) [µM] | TGI (SNB-19 CNS) [µM] | TGI (HOP-62 NSCLC) [µM] | GI50 (CCRF-CEM leukemia) [µM] | GI50 (OVCAR-4 ovarian) [µM] | GI50 (SF-268 CNS) [µM] | GI50 (HOP-62 NSCLC) [µM] | GI50 (T-47D breast) [µM] | TGI (T-47D breast) [µM] | GI50 (BT-549 breast) [µM] | TGI (BT-549 breast) [µM] | GI50 (MDA-MB-231 breast) [µM] | TGI (MDA-MB-231 breast) [µM] | TGI (HOP-92 NSCLC) [µM] | GI50 (UACC-62 melanoma) [µM] | GI50 (SNB-19 CNS) [µM] | GI50 (HOP-92 NSCLC) [µM]
O=c1[nH]c(=O)n(C2CC(O)C(CO)O2)cc1C#Cc1ccc(F)cc1 (stereo not drawn) | > 100 | > 100 | > 100 | > 100 | > 100 | > 100 |  |  |  |  |  |  |  |  |  |  |  |  |  | 
COc1cccc(C2C3=C(COC3=O)N(CCO)c3cc4c(cc32)OCO4)c1 (stereo not drawn) | > 50 | > 50 | > 50 | 49.2 | > 10.6 | > 50 | 0.274 | 2.32 | 1.53 | 0.598 | 0.263 | > 50 | 0.45 | > 45.1 | 1.28 | 45.8 |  |  |  | 
COc1cc2c(cc1C1=NC(C)(C)CO1)OCO2 | > 100 | > 100 | > 100 | > 100 | > 100 | > 100 |  |  |  |  |  |  |  |  |  |  | > 100 |  |  | 
CCN(CC)CCn1[nH]c2c3ccc(=O)cc3sc3c(NCCN)ccc1c32 | 1.48 | 0.719 | 2.28 | > 100 | 4.29 | 2.3 |  |  |  |  |  |  |  |  |  |  | 3.96 |  |  | 
COc1ccc(Nc2nc3cc(N)cc(N)c3nc2-c2ccccc2)cc1OC | 27.4 |  | 52.1 | 47.1 | > 100 | > 100 |  | 18.7 | 14.2 | 34.8 | 14.4 | 38.2 | 25.9 | 81.6 | 4.92 | 18.5 |  | 13.4 | 35.4 | 
COC1OC(C)C2OC(C)(C)OC2C1OC(C)=O (stereo not drawn) | > 100 | > 100 | > 100 | > 100 | > 100 | > 100 |  |  |  |  |  |  |  |  |  |  | > 100 |  |  | 
CC12CCC3c4cc(Br)c(O)c(Br)c4CCC3C1CCC2O (stereo not drawn) | 33.1 | 75.8 |  | 49.6 |  |  |  |  |  |  |  | 83.8 |  | 30.2 |  | 27.4 |  |  |  | 
O=C(/C=C/C12c3ccccc3C(c3ccccc31)C1C(=O)NC(=O)C12)c1ccc(Cl)cc1 (stereo not drawn) | 2.77 | > 100 | 2.76 | 5.31 | 3.04 | 3.39 | 1.66 | 1.42 | 1.99 | 1.69 |  |  | 1.34 | 2.69 | 1.88 | 4.3 | 2.86 | 1.4 | 1.58 | 1.32
CCOC(=O)C(CNc1ccc(O)cc1)NC(=O)c1ccccc1 (stereo not drawn) | > 95 | > 100 | > 100 | > 100 | > 100 | > 100 |  |  |  |  |  |  |  |  |  |  | > 100 |  |  | 
O=C(NCc1ccco1)c1cccc(NC2=C(Cl)C(=O)N(Cc3ccccc3)C2=O)c1 | 33.3 |  | 64.3 | > 100 | > 100 | 28.5 |  | 6.74 | > 100 | 13.1 | 23.1 | > 100 | 7.29 | 30.7 | 17.3 | > 100 | 33 | 12.6 | 23.2 | 7.91
